Columns and labels:
[1] = system: cultured osteoblastic cells; test: osteoblast proliferation (mitogenic/osteogenic effect); type: cell-based, rat, mouse, and human
Experimental: Osteoblasts were isolated from 20-day old fetal rat calvariae as previously described (Cornish et al. (1999) Amer. J. Physiol-Endocrinol. Metab. 277:E779–E783). Briefly, calvariae were excised and the frontal and parietal bones, free of suture and periosteal tissue, were collected. After washing, the calvariae were treated twice with 3 mL of 1 mg/mL collagenase for 7 minutes at 37° C. After discarding the supernatants from these two digestions, the calvariae were treated a further twice with 3 mL of 2 mg/mL collagenase (30 mins, 37° C.). The supernatants of the latter two digestions were pooled, centrifuged, and the cells washed. Cells were grown to confluence and then subcultured into 24 well plates. Cells were growth arrested in minimum essential medium (MEM)/0.1% bovine serum albumin for 24 h before harvest.
The human osteoblast-like osteosarcoma cell line SaOS-2 was maintained in DMEM (GIBCO 12100-046) supplemented with 2.2 g/L NaHCO3, 10% FBS, and 10 ml/L penicillin-streptomycin (GIBCO 15140-122). Cells were plated in 75 cm^2 flasks and when confluent used for total RNA isolation or proliferation assays.

[2] = system: bacterial; conditions: cited from earlier work

Substance	osteogenic effect / osteogenic activity [1]	bacterial killing [2]	mitogenic effect on osteoblasts [1]
Lactoferricin	only a modest osteogenic effect	effective in bacterial killing	
Transferrin: Transferrin, compared with lactoferrin as mitogen on osteoblasts [reference compound]			not a potent mitogen
